This is an account of results in patent publication US11572359B2, “PARP/PI3K double-target inhibit containing pyridopyrimidine structure” (CHINA PHARMACEUTICAL UNIVERSITY, priority 2017, dated 2023).

Like-named read-outs stand apart in the source and are kept apart here.

Data set [1] relates to Human Breast Cancer MDA-MB-468 Cell Nude Mice Xenograft. The data set can be described thus: Growth of human breast cancer MDA-MB-468 cell nude mice xenograft. The following applies: for Tumor Volumes / Tumor weights: abdominal cavity, once every 2 days; for Anti-tumor effect compared with the combination group olaparib (50 mg/kg)/BKM120 (27.5 mg/kg) (in words): p<0.05; for Inhibition of the growth of the MDA-MB-468 nude mice xenografts (in words) / Inhibition rate compared with positive drugs olaparib and BKM120 (in words): I-1 50 mg/kg, 1-3 50 mg/kg, olaparib 50 mg/kg/BKM120 27.5 mg/kg; for Tumor weights: after 34 days, in g (unit assumed). The data set is classed as in vivo. Here is the method: Preparing an MDA-MB-468 cell line in a logarithmic growth phase into a 2×10^7/mL cell suspension under sterile conditions, and inoculating 0.1 mL of the cell suspension under the skin of the right axilla of each nude mouse. Measuring the diameter of a nude mice xenograft with a vernier caliper, and randomly dividing the animals into groups after the tumors grew to about 100 mm^3. Dynamically observing an anti-tumor effect of the tested animals using a method of measuring the tumor diameter, wherein the frequency of measurements of the tumor diameter is once every 2 days, and the administration volume is 0.4 mL/20 g. After 34 days, killing the mice and surgically removing and weighing tumor pieces. The formula for calculating tumor volume (TV) is: TV=½×a×b^2, wherein a and b represent the length and the width respectively.

The subject of data set [2] is HCC1937 (human breast cancer cells). The data set can be described thus: Tumor cell proliferation inhibition (SRB, 72 hours), HCC1937. The data set is classed as cell-based. Here is the method:
(§1) Inoculating HCT116 (human colon cancer cells), HCC1937 (human breast cancer cells), MDA-MB-231 (human breast cancer cells) and MDA-MB-468 (human breast cancer cells) in a logarithmic growth phase with a certain quantity in a 96-well plate (200 μL/well) for culture for 24 hours so as to adhere to walls and then adding drugs. Arranging 3 duplicate wells for each drug concentration, and setting corresponding zero-cut holes and blank controls. After 72 hours of drug action, adding 50% TCA (50 μL/well) into adherent cells, fixing at 4° C. for 1 hour, pouring a fixing solution, washing for 5 times with distilled water, and naturally drying. Adding 100 μL of 4 mg/mL SRB into each well, staining at a room temperature for 15 minutes, discarding, washing for 5 times with 1% glacial acetic acid, and naturally drying. Finally, adding 150 μL of a 10 mM Tris solution into each well, shaking to be uniform, and measuring OD values at a wavelength of 565 nm using a wavelength-adjustable microplate reader (VERSAmax™, Molecular Device).

The target in data set [3] is PI3Kα (Homo sapiens, UniProt P42336). The data set can be described thus: PI3Kα inhibitory activity at the enzyme level (ADP detection by luciferase method). The data set is classed as biochemical. Conditions: for inhibition at 0.1 µM: 100 nM compound, read-out: Inhibition rate on PI3Kα (100 nM). Here is the method: Experimental method for PI3Kα inhibitory activity: simultaneously adding 40 mM Tris, pH 7.4, 10 mM MgCl2, 0.1 mg/ml BSA, 1 mM DTT, 10 μM ATP, PI3Kα kinase and a kinase substrate into different concentrations of compounds to be sieved to form a 50 μL reaction system, after reaction at 30° C. for 40 minutes, detecting an ADP content in the system through a luciferase method, and then after reaction for 5 minutes, detecting a chemiluminescence signal on an MD-SpectraMax M5 multi-function microplate reader, wherein the intensity of a value of the chemiluminescence signal is in direct proportion to […]. The detected value of the chemiluminescence signal is substituted into the following formula: Enzyme activity percentage (%)=(OD value administration hole-OD value background)/(OD value control hole−OD value background)×100%
PI3Kα, sequence (P42336 whole entry): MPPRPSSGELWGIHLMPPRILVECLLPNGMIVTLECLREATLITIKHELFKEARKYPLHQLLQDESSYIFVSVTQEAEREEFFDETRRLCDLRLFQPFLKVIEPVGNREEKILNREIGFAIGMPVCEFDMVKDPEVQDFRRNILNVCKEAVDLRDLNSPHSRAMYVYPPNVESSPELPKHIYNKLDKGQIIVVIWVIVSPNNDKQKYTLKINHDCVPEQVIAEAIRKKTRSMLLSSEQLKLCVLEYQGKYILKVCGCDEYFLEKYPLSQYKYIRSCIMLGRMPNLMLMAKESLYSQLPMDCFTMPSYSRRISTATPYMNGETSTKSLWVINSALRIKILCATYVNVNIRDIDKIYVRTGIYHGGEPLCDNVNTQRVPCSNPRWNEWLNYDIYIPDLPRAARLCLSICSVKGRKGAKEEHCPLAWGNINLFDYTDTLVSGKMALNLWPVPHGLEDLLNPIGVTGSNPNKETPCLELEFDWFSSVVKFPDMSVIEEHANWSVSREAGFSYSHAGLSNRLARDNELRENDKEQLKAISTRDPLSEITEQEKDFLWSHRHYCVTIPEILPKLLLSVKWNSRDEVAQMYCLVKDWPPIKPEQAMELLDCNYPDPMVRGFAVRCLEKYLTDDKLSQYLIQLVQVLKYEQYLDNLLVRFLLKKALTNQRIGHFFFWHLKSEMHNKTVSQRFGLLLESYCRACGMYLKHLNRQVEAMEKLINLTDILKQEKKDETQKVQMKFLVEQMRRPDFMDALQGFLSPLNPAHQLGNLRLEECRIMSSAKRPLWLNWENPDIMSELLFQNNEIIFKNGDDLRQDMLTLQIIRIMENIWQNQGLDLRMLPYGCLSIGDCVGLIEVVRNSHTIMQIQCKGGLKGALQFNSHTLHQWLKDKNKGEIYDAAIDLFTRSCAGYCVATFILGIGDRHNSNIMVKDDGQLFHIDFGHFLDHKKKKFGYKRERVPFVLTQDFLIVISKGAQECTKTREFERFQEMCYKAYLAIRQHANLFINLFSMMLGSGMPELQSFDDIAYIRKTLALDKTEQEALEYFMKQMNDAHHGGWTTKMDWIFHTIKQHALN
PI3Kα, sequence (P27986 whole entry partner): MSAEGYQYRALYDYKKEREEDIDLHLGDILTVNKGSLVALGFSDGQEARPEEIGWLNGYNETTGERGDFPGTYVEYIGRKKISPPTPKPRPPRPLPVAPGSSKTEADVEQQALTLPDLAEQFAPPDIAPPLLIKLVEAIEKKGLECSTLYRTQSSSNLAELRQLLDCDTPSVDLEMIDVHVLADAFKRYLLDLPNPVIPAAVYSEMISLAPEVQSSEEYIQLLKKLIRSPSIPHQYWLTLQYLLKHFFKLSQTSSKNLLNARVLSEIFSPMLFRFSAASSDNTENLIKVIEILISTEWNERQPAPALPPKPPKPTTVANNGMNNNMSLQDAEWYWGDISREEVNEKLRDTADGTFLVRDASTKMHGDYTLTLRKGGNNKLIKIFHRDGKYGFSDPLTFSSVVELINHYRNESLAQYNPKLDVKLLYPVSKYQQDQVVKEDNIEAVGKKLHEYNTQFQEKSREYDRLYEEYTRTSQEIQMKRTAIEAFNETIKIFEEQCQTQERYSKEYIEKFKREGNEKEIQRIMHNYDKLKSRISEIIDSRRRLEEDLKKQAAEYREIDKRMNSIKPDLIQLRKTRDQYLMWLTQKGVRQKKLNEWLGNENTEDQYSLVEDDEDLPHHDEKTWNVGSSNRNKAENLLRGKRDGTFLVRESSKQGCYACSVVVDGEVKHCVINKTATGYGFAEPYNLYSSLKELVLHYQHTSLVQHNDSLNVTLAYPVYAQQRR
(§2) Method for determining IC50 of PARP-1 and PI3Kα: diluting a drug concentration according to a three-fold concentration gradient, and detecting two duplicate wells at each concentration; taking the drug concentration as the abscissa and the percentage of enzyme activity corresponding to each concentration as the ordinate, and calculating to obtain inhibition IC50 values of all tested compounds by using Graphpad Prism5 for nonlinear regression.

For data set [4], the system named is MDA-MB-231 (human breast cancer cells). The data set can be described thus: Tumor cell proliferation inhibition (SRB, 72 hours), MDA-MB-231. The data set is classed as cell-based. The procedure: as §1
In data set [5] the test system is MDA-MB-468 (human breast cancer cells). The data set can be described thus: Tumor cell proliferation inhibition (SRB, 72 hours), MDA-MB-468. The data set is classed as cell-based. Here is the method: as §1
For data set [6], the target named is PARP-1 (Homo sapiens, UniProt P09874). The data set can be described thus: PARP-1 inhibitory activity at the enzyme level (histone-coated plate, chemiluminescence). The data set is classed as biochemical. Conditions: for inhibition at 0.01 µM: 10 nM compound, read-out: Inhibition rate on PARP-1 (10 nM). The procedure:
Experimental method for PARP-1 inhibitory activity: taking out a 96-well plate pre-coated with histones, and adding a following enzyme reaction system and inhibitors of different concentrations into each well, including: 50 μL of a reaction buffer solution (Tris*HCl, pH 8.0), NAD^+, biotin-labeled activated DNA, PARP-1 enzyme, and an inhibitor; after reaction at a room temperature for 1 hour, adding 50 uL of avidin-labeled HRP into each well for reaction for 30 minutes; and then adding 100 μL of an HRP substrate, and detecting a chemiluminescence value on a SpectraMax M instrument. The percentage of enzyme activity is calculated by the following formula: Enzyme activity percentage (%)=(OD value administration hole-OD value background)/(OD value control hole−OD value background)×100%
as §2

The subject of data set [7] is HCT116 (human colon cancer cells). The data set can be described thus: Tumor cell proliferation inhibition (SRB, 72 hours), HCT116. The data set is classed as cell-based. The procedure: as §1
[8] abbreviates: 12 days, 50 mg/kg (I-1: medium).
[9] abbreviates: 18 days, 50 mg/kg (I-1: medium).
Where [10] appears, read: 24 days, 50 mg/kg (I-1: medium).
Where [11] appears, read: 30 days, 50 mg/kg (I-1: medium).
The mark [12] stands for this setting: 34 days, 50 mg/kg (I-1: medium).

PARP-1, sequence (P09874 whole entry): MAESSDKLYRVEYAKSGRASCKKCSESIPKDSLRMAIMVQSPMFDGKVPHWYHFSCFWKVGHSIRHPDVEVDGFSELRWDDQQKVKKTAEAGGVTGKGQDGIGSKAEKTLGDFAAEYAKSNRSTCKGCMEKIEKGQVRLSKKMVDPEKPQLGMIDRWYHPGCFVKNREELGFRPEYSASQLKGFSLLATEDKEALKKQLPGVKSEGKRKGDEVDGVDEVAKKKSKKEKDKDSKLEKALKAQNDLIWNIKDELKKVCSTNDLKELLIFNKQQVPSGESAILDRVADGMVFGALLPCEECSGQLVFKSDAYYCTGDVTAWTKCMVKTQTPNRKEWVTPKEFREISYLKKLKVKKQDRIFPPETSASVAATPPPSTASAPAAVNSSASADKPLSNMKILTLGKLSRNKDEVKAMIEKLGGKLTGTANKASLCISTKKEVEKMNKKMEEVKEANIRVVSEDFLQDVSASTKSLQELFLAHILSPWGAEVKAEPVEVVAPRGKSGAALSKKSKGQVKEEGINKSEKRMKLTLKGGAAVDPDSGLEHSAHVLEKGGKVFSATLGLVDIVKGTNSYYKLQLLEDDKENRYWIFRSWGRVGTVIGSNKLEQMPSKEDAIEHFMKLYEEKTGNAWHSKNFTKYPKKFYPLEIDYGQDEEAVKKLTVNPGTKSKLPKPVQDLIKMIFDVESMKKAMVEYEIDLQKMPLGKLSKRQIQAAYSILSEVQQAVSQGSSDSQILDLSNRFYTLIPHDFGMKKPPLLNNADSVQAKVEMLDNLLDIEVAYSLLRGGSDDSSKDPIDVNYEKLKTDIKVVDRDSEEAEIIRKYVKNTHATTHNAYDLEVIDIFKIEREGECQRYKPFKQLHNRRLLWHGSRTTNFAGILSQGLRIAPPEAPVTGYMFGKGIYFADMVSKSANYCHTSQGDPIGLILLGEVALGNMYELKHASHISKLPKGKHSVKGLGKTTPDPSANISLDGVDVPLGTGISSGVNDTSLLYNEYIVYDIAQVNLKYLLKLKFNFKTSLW

With `Nc1cc(C(F)(F)F)c(-c2nc3c(c(N4CCOCC4)n2)CCN(C(=O)c2cc(Cc4n[nH]c(=O)c5ccccc45)ccc2F)C3)cn1` [I-3, 4-(3-(2-(6-amino-4-(trifluoromethyl)pyridin-3-yl)-4-morpholinyl-5,6,7,8-tetrahydropyrido [3,4-d]pyrimidin-7-formyl)-4-fluorobenzyl)phthalazin-1(2H)-one], the “Tumor Volumes” value in data set [1] (0 day, 50 mg/kg (I-1: medium)) is 93.00 mm^3; in data set [1] (6 days, 50 mg/kg (I-1: medium)), 142.00 mm^3; in data set [1] (setting [8]), 190.90 mm^3; in data set [1] (setting [9]), 216.60 mm^3; in data set [1] (setting [10]) it was 241.50 mm^3; in data set [1] (setting [11]) it was 280.80 mm^3. Moreover, the “Tumor Volumes” value in data set [1] (setting [12]) was determined as 310.10 mm^3. The “Anti-tumor effect, ranking among the groups (in words)” value in data set [1] (50 mg/kg) was “optimal”. Besides, the “Anti-tumor effect compared with the combination group olaparib (50 mg/kg)/BKM120 (27.5 mg/kg) (in words)” value in data set [1] (50 mg/kg) is “obviously superior”. For the same compound, the “Inhibition of the growth of the MDA-MB-468 nude mice xenografts (in words)” value in data set [1] is recorded as “significantly inhibit the growth”. In addition, in data set [1], the “Inhibition rate compared with positive drugs olaparib and BKM120 (in words)” value is listed as “higher”. Besides, the Tumor weights in data set [1] (50 mg/kg (I-1: medium)) came out at 0.44. The IC50 (commonly the concentration that gives 50% inhibition) in data set [2] was 504 nM; in data set [2] (Homo sapiens, HCC1937, 72 h), below 1000 nM; in data set [3], 194 nM; in data set [4], 155 nM; in data set [5], 266 nM; in data set [6] it was 4.9 nM. Moreover, the 50% inhibitory concentration (IC50) is 775 nM in data set [7] and below 1000 nM in data set [7] (Homo sapiens, HCT-116, 72 h). Besides, the inhibition (commonly how much of the control response was suppressed) at 0.1 µM in data set [3] amounted to 34%. In addition, the inhibition at 0.01 µM in data set [6] is 55%.

Consider `Nc1ccc(-c2nc3c(c(N4CCOCC4)n2)CCN(C(=O)c2cc(Cc4n[nH]c(=O)c5ccccc45)ccc2F)C3)cn1` [I-2, 4-(3-(2-(6-aminopyridin-3-yl)-4-morpholinyl-5,6,7,8-tetrahydropyrido[3,4-d]pyrimidin-7-formyl)-4-fluorobenzyl)phthalazin-1(2H)-one], for which the IC50 in data set [2] (Homo sapiens, HCC1937, 72 h) was determined as 121 nM; in data set [3], 130 nM; in data set [4] (Homo sapiens, MDA-MB-231, 72 h), 816 nM; in data set [5] (Homo sapiens, MDA-MB-468, 72 h), 1340 nM; in data set [6], 0.395 nM; in data set [7] (Homo sapiens, HCT-116, 72 h), 217 nM. The inhibition at 0.1 µM in data set [3] amounted to 66%. Besides, the inhibition at 0.01 µM in data set [6] was 93%.

Consider `C[C@@H]1CN(c2nc(-c3cnc(N)nc3)nc3c2CCN(C(=O)c2cc(Cc4n[nH]c(=O)c5ccccc45)ccc2F)C3)C[C@H](C)O1` [I-12, 4-(3-(2-(2-aminopyrimidin-5-yl)-4-((2S,6R)-2,6-dimethylmorpholinyl)-5,6,7,8-tetrahydropyrido [3,4-d]pyrimidin-7-formyl)-4-fluorobenzyl) phthalazin-1(2H)-one], for which the melting point (commonly the temperature of the solid-liquid transition) fell in the range of 204 to 206 °C. In data set [2] (Homo sapiens, HCC1937, 72 h), the IC50 came out at 784 nM. In data set [3], the IC50 worked out at 92.6 nM and the inhibition at 0.1 µM amounted to 40%. This compound also gave an IC50 in data set [4] (Homo sapiens, MDA-MB-231, 72 h) of 1130 nM. The IC50 in data set [5] (Homo sapiens, MDA-MB-468, 72 h) stood at 1580 nM. For the same compound, in data set [6], the IC50 was found to be 3.87 nM and the inhibition at 0.01 µM is 76%. This compound came in with an IC50 in data set [7] (Homo sapiens, HCT-116, 72 h) of 1010 nM.

As to `O=C(c1cc(Cc2n[nH]c(=O)c3ccccc23)ccc1F)N1CCc2c(nc(-c3cccc4[nH]ncc34)nc2N2CCOCC2)C1` [I-8, 4-(3-(2-(1H-indazole-4-yl)-4-morpholinyl-5,6,7,8-tetrahydropyrido[3,4-d]pyrimidin-7-formyl)-4-fluorobenzyl)phthalazin-1(2H)-one], the IC50 came to 482 nM in data set [2] (Homo sapiens, HCC1937, 72 h); 708 nM in data set [4] (Homo sapiens, MDA-MB-231, 72 h); 1150 nM in data set [5] (Homo sapiens, MDA-MB-468, 72 h); 536 nM in data set [7] (Homo sapiens, HCT-116, 72 h). Moreover, the inhibition at 0.1 µM in data set [3] worked out at 42%. Besides, the inhibition at 0.01 µM in data set [6] amounted to 91%.

Take `Nc1ncc(-c2nc3c(c(N4CCOCC4)n2)CCN(C(=O)c2cc(Cc4n[nH]c(=O)c5ccccc45)ccc2F)C3)cn1` [I-1, 4-(3-(2-(2-aminopyrimidin-5-yl)-4-morpholinyl-5,6,7,8-tetrahydropyrido [3,4-d]pyrimidin-7-formyl)-4-fluorobenzyl) phthalazin-1(2H)-one]: the “Tumor Volumes” value in data set [1] (0 day, 50 mg/kg (I-1: medium)) was 94.95 mm^3; in data set [1] (0 day, high, 100 mg/kg) it was 93.30 mm^3; in data set [1] (0 day, low, 25 mg/kg) it was 96.16 mm^3; in data set [1] (6 days, 50 mg/kg (I-1: medium)) it was 136.45 mm^3; in data set [1] (6 days, high, 100 mg/kg) it was 122.80 mm^3; in data set [1] (6 days, low, 25 mg/kg), 205.61 mm^3. Further, the “Tumor Volumes” value in data set [1] (setting [8]) was 222.15 mm^3; in data set [1] (12 days, high, 100 mg/kg), 145.60 mm^3; in data set [1] (12 days, low, 25 mg/kg), 303.37 mm^3; in data set [1] (setting [9]), 301.78 mm^3; in data set [1] (18 days, high, 100 mg/kg), 186.00 mm^3; in data set [1] (18 days, low, 25 mg/kg) it was 401.23 mm^3. The “Tumor Volumes” value is on record as 399.10 mm^3 in data set [1] (setting [10]); 209.30 mm^3 in data set [1] (24 days, high, 100 mg/kg); 555.25 mm^3 in data set [1] (24 days, low, 25 mg/kg); 489.89 mm^3 in data set [1] (setting [11]); 234.10 mm^3 in data set [1] (30 days, high, 100 mg/kg); 707.38 mm^3 in data set [1] (30 days, low, 25 mg/kg). The “Tumor Volumes” value in data set [1] (setting [12]) is 551.70 mm^3; in data set [1] (34 days, high, 100 mg/kg), 250.00 mm^3; in data set [1] (34 days, low, 25 mg/kg), 808.40 mm^3. In data set [1] (50 mg/kg), the “Anti-tumor effect compared with the combination group olaparib (50 mg/kg)/BKM120 (27.5 mg/kg) (in words)” value is given as “obviously superior”. The “Dose dependence of tumor growth inhibition (in words)” value in data set [1] (25, 50, 100 mg/kg) is reported as “dose-dependent manner”. For the same compound, in data set [1], the “Inhibition of the growth of the MDA-MB-468 nude mice xenografts (in words)” value is recorded as “significantly inhibit the growth”. In data set [1], the “Inhibition rate compared with positive drugs olaparib and BKM120 (in words)” value is “higher”. In addition, the Tumor weights in data set [1] (50 mg/kg (I-1: medium)) was 0.54; in data set [1] (high, 100 mg/kg), 0.34; in data set [1] (low, 25 mg/kg), 0.85. Further, the IC50 is 81 nM in data set [2]; 69 nM in data set [3]; 909 nM in data set [5]; below 1000 nM in data set [5] (Homo sapiens, MDA-MB-468, 72 h); 3.75 nM in data set [6]. Also, the inhibition at 0.1 µM in data set [3] came to 66%. For the same compound, the inhibition at 0.01 µM in data set [6] came out at 81%.
